In EPA's ToxValDB 9.5 (doi:10.2903/j.efsa.2010.1906):
≈ marks a conversion by molar mass, not a printed value.

Legend:
Colinus virginianus = details: acute, oral, mortality
Pimephales promelas = details: chronic/long-term; duration: 34 days; reproduction
Daphnia magna = details: chronic/long-term; duration: 21 days; reproduction
Lepomis macrochirus = details: acute; duration: 96 hours; mortality
Rattus norvegicus = details: oral
Apis mellifera = details: acute; duration: 48 hours; oral; unspecified; mortality
Bibionidae = details: chronic/long-term; duration: 28 days; development
Folsomia candida = details: chronic/long-term, duration: 28 days
Oryctolagus sp. = details: developmental; development
Anas platyrhynchos = details: reproductive
Mus musculus = details: chronic; histopathology: neoplastic
Canidae = details: subchronic; duration: 90 days; oral; F; Dog Other; body weight
Landoltia sp. = details: acute; duration: 14 days

CCOc1cc(Oc2ccc(C(F)(F)F)cc2Cl)ccc1[N+](=O)[O-] [Oxyfluorfen]
LD50 (Colinus virginianus; diet): > 462 mg/kg-day | LD50 (Colinus virginianus): > 2150 mg/kg-day | NOEC (Pimephales promelas): 0.038 mg/L | NOEC (Daphnia magna): 0.013 mg/L | LC50 (Lepomis macrochirus): 0.21 µg/mL (≈ 0.581 µM) | LD50 (Rattus norvegicus; acute, mortality): > 5000 mg/kg-day | NOAEL (Rattus norvegicus; chronic, duration: 2 years): 20 mg/kg-day | LC50 (Tagia sp.; acute, duration: 14 days, mortality): > 1000 mg/kg | NOEC (Tagia sp.; chronic/long-term, duration: 56 days): 24 mg/kg | LD50 (Apis mellifera): > 100 µg/piece | NOEC (Bibionidae): 0.08 mg/L | LC50 (Folsomia candida; mortality): 2.78 mg/kg | NOEC (Folsomia candida; reproduction): 1.25 mg/kg | NOAEL (Oryctolagus sp.): 30 mg/kg-day | NOEL (Anas platyrhynchos): 64.7 mg/kg-day | NOAEL (Mus musculus): 3 mg/kg-day | NOAEL (Canidae): 2.17 mg/kg-day | NOEC (Landoltia sp.): 0.00195 mg/L
